Reference: patent publication US7563781B2, “Triazolopyrimidine derivatives” (Janssen Pharmaceutica NV, priority 2006, dated 2009)

Columns and labels:
[1] = biological target: T1, CAK complex (human Cdk7, human Cyclin H, MAT-1) (Homo sapiens, UniProt P50613); experiment: in vitro time-resolved-fluorescence assay for the CAK kinase activity; assay type: biochemical; settings: compound 20 uM; read-out: CAK % inhib; 20 uM
T1 construct: made in house; host or cells: SF-900 insect cells co-infected with Flag-Cdk7 and Bab-Cyclin H baculoviruses
Procedure, shortened: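 Kinase activity of the human CAK complex (Flag-tagged Cdk7, Cyclin H, MAT-1), purified from co-infected SF-900 insect cells by Flag-M2 immunoaffinity, was measured by time-resolved fluorescence. In black glutathione-coated 96-well plates, 500 ng GST-CTD substrate with 22 uM ATP was mixed with compound in 30% DMSO/25 mM Hepes and 250 ng CAK. Plates were incubated 20 minutes at 30° C, then stopped with EDTA, bound overnight and washed. A Europium-labeled antibody detected serine-phosphorylated CTD.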

[2] = biological target: T2, Focal Adhesion Kinase (full-length Flag-tagged human FAK) (Homo sapiens, UniProt Q05397); experiment: in vitro FAK ELISA kinase assay; assay type: biochemical; settings: compound 10 uM; ATP 2 uM; read-out: FAK % Inhib ave: 10 uM
T2 construct: a purified recombinant full-length Flag-tagged human FAK protein; Flag; made in house; host or cells: baculovirus infected insect cells
Procedure, shortened: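 Plate-coated GST fusion of the 73-residue region around Tyr397 phosphorylated by full-length Flag-tagged human FAK from baculovirus-infected insect cells, with 2 μM ATP in Mg/Mn HEPES pH 7.5, 1 h at 30 °C. Phosphotyrosine detected by HRP-anti-pTyr ELISA with TMB read-out. Compounds screened at 10 μM or titrated from 50 μM in half-log steps for IC50, BSA-substrate background subtracted.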

T1 sequence (P50613 with tags, fused parts or gaps): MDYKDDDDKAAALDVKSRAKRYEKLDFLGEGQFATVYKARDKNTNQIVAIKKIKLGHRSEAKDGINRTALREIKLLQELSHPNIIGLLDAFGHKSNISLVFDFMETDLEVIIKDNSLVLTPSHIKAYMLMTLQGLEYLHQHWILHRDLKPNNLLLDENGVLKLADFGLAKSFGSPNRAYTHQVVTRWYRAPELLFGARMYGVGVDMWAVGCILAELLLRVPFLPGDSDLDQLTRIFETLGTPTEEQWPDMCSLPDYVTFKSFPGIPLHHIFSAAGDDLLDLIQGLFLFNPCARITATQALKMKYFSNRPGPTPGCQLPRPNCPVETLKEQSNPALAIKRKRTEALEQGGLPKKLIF
T1 sequence (as listed by the source partner): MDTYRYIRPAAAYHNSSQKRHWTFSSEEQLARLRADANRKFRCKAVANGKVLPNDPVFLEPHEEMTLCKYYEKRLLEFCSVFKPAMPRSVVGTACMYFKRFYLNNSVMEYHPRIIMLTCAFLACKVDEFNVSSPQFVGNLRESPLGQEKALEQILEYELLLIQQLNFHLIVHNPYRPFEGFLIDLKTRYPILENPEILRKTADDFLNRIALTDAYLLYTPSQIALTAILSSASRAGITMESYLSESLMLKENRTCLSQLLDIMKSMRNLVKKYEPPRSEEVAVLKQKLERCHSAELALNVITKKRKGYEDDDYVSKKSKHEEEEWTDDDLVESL
T2 sequence (Q05397 whole entry): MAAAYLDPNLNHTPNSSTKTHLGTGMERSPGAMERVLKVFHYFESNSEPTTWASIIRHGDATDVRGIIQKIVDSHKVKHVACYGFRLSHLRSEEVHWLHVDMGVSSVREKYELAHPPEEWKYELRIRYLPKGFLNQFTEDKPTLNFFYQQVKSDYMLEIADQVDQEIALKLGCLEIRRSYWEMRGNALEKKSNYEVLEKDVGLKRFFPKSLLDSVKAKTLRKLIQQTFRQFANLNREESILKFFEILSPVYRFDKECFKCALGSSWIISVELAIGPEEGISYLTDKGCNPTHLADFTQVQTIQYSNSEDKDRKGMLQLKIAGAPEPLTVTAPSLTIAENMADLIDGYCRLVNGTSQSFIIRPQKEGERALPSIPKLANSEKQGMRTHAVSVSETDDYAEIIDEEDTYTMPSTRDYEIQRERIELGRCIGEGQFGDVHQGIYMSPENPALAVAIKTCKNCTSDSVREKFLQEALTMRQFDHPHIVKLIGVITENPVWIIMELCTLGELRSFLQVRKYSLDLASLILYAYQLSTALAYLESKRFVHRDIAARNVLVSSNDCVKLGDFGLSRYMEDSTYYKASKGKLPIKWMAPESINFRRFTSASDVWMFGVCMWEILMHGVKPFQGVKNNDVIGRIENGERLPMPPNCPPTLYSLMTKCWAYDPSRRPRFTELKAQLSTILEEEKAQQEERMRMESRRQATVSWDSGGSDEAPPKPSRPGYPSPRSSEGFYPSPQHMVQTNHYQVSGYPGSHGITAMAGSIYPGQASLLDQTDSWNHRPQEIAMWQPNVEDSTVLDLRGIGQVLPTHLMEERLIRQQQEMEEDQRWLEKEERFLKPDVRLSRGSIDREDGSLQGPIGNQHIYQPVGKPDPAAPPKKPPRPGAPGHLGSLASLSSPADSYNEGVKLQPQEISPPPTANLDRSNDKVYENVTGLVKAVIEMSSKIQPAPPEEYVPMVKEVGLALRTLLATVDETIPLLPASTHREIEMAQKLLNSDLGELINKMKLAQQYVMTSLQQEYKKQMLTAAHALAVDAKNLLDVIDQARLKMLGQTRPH

inhibition at 20 µM [1]	inhibition at 10 µM [2]	Structure (SMILES)
86.6%	80%	O=C(NCCCn1ccnc1)c1cccc(Nc2ncc3nnn(-c4ccc5c(c4)CCC5)c3n2)c1 [Compound 79, N-(3-Imidazol-1-yl-propyl)-3-(3-indan-5-yl-3H-[1,2,3]triazolo[4,5-d]pyrimidin-5-ylamino)-benzamide]
17.9%	33.9%	O=C(NCCCN1CCCC1=O)c1cccc(Nc2ncc3nnn(-c4ccc5c(c4)CCC5)c3n2)c1 [Compound 80, 3-(3-Indan-5-yl-3H-[1,2,3]triazolo[4,5-d]pyrimidin-5-ylamino)-N-[3-(2-oxo-pyrrolidin-1-yl)-propyl]-benzamide]
99.7%	58.1%	CN1CCN(CCCNC(=O)c2cccc(Nc3ncc4nnn(-c5ccc6c(c5)CCC6)c4n3)c2)CC1 [Compound 81, 3-(3-Indan-5-yl-3H-[1,2,3]triazolo[4,5-d]pyrimidin-5-ylamino)-N-[3-(4-methyl-piperazin-1-yl)-propyl]-benzamide]
5.06%	13.5%	OCCCOc1ccc(Nc2ncc3nnn(-c4ccc5c(c4)CCC5)c3n2)cc1 [Compound 82, 3-[4-(3-Indan-5-yl-3H-[1,2,3]triazolo[4,5-d]pyrimidin-5-ylamino)-phenoxy]-propan-1-ol]
5.45%	28.7%	CCN(CC)CCNC(=O)c1ccc(Nc2ncc3nnn(-c4ccc(C5CCCCC5)cc4)c3n2)cc1 [Compound 83, 4-[3-(4-Cyclohexyl-phenyl)-3H-[1,2,3]triazolo[4,5-d]pyrimidin-5-ylamino]-N-(2-diethylamino-ethyl)-benzamide]
-58.9%	46.6%	CCN(CC)CCNC(=O)c1ccc(Nc2ncc3nnn(-c4cccc(-c5cnco5)c4)c3n2)cc1 [Compound 84, N-(2-Diethylamino-ethyl)-4-[3-(3-oxazol-5-yl-phenyl)-3H-[1,2,3]triazolo[4,5-d]pyrimidin-5-ylamino]-benzamide]
9.49%	47.8%	c1cc(Nc2ncc3nnn(-c4cccc(-c5cnco5)c4)c3n2)cc(-c2cnco2)c1 [Compound 85, (3-Oxazol-5-yl-phenyl)-[3-(3-oxazol-5-yl-phenyl)-3H-[1,2,3]triazolo[4,5-d]pyrimidin-5-yl]-amine]
110%	65.1%	CCCCNS(=O)(=O)c1ccc(OC)c(-n2nnc3cnc(Nc4ccc(C(=O)NCCN(CC)CC)cc4)nc32)c1 [Compound 86, 4-[3-(5-Butylsulfamoyl-2-methoxy-phenyl)-3H-[1,2,3]triazolo[4,5-d]pyrimidin-5-ylamino]-N-(2-diethylamino-ethyl)-benzamide]
99.5%	81.5%	CCN(CC)CCCOc1ccc(Nc2ncc3nnn(-c4ccc5c(c4)CCC5)c3n2)cc1 [Compound 87, [4-(3-Diethylamino-propoxy)-phenyl]-(3-indan-5-yl-3H-[1,2,3]triazolo[4,5-d]pyrimidin-5-yl)-amine]
103%	92.3%	CN(CCO)CCCOc1ccc(Nc2ncc3nnn(-c4ccc5c(c4)CCC5)c3n2)cc1 [Compound 88, 2-({3-[4-(3-Indan-5-yl-3H-[1,2,3]triazolo[4,5-d]pyrimidin-5-ylamino)-phenoxy]-propyl}-methyl-amino)-ethanol]
97.6%	73.4%	CN(CCCOc1ccc(Nc2ncc3nnn(-c4ccc5c(c4)CCC5)c3n2)cc1)CC(=O)O [Compound 89, ({3-[4-(3-Indan-5-yl-3H-[1,2,3]triazolo[4,5-d]pyrimidin-5-ylamino)-phenoxy]-propyl]-methyl-amino)-acetic acid]
47.5%	31.7%	CN(CCCOc1ccc(Nc2ncc3nnn(-c4ccc5c(c4)CCC5)c3n2)cc1)Cc1ccccc1 [Compound 90, {4-[3-(Benzyl-methyl-amino)-propoxy]-phenyl}-(3-indan-5-yl-3H-[1,2,3]triazolo[4,5-d]pyrimidin-5-yl)-amine]
48.7%	10.4%	c1cc(OCCCN2CCOCC2)ccc1Nc1ncc2nnn(-c3ccc4c(c3)CCC4)c2n1 [Compound 91, (3-Indan-5-yl-3H-[1,2,3]triazolo[4,5-d]pyrimidin-5-yl)-[4-(3-morpholin-4-yl-propoxy)-phenyl]-amine]
103%	91.2%	c1cc(OCCCN2CCCC2)ccc1Nc1ncc2nnn(-c3ccc4c(c3)CCC4)c2n1 [Compound 92, (3-Indan-5-yl-3H-[1,2,3]triazolo[4,5-d]pyrimidin-5-yl)-[4-(3-pyrrolidin-1-yl-propoxy)-phenyl]-amine]
101%	90.8%	OC1CCN(CCCOc2ccc(Nc3ncc4nnn(-c5ccc6c(c5)CCC6)c4n3)cc2)C1 (stereo not drawn) [Compound 93, 1-{3-[4-(3-Indan-5-yl-3H-[1,2,3]triazolo[4,5-d]pyrimidin-5-ylamino)-phenoxy]-propyl}-pyrrolidin-3-ol]
